Test results published in patent US20260226037A1, “MICROTUBULE TARGETING AGENTS” (ARIEL SCIENTIFIC INNOVATIONS LTD., priority 2022, published 2026).
Where two headings read alike, the source gives them in different places.

Key:
Type in all cases: cell-based
MES-SA/DX5 cells = experiment: XTT cytotoxicity, MES-SA/DX5; conditions: for effectiveness in subline overexpressing PgP: MES-SA/DX5 vs MES-SA; for IC50: MES-SA/DX5, uterine sarcoma, P-gp overexpression; for IC50 ratio between resistant and non-resistant cells: MES-SA/DX5 / MES-SA
Experimental: (§1) The cytotoxic activity of the novel family was evaluated against various tumor cells, including myeloma cells, acute lymphoblastic leukemia cells, acute monocytic leukemia cells, chronic myelogenous leukemia cells, pancreatic cancer cells, breast cancer cells, uterine sarcoma cells, cervix adenocarcinoma cells, ovary cancer cells, melanoma cells, osteosarcoma cells, prostate cancer cells, lung cancer cells, neuroblastoma cells and colorectal adenocarcinoma cells by XTT assay.

NALM6 cells = experiment: XTT cytotoxicity, NALM6; conditions: NALM6, acute lymphoblastic leukemia, non-resistant, read-out: IC50
Experimental: as §1
(§2) Most tubulin-binding anticancer drugs currently used in the clinic are substrates for Pgp effux pump. […] The inventors tested the viability of NALM6 acute lymphoblastic leukemia cell line (ALL) and its corresponding doxorubicin resistant N6/ADR cell line that overexpress Pgp glycoprotein and has cross-resistance to vincristine.

NCI-H69 cells = experiment: XTT cytotoxicity, NCI-H69; conditions: NCI-H69, small cell lung carcinoma, non-resistant
Experimental: as §1

MES-SA cells = experiment: XTT cytotoxicity, MES-SA; conditions: poorly differentiated uterine sarcoma, non-resistant
Experimental: as §1

N6/ADR cells = experiment: XTT cytotoxicity, N6/ADR; conditions: for IC50 ratio between resistant and non-resistant cells: N6/ADR / NALM6; for IC50: N6/ADR, acute lymphoblastic leukemia, P-gp overexpression, read-out: IC50
Experimental: as §1, §2

MCF7-VP cells = experiment: XTT cytotoxicity, MCF7-VP; conditions: for IC50: MCF7-VP, breast adenocarcinoma, MRP overexpression; for IC50 ratio between resistant and non-resistant cells: MCF7-VP / MCF7
Experimental: as §1

A2780ADR cells = experiment: XTT cytotoxicity, A2780ADR; conditions: for IC50 ratio between resistant and non-resistant cells: A2780ADR / A2780; for IC50: A2780ADR, ovarian carcinoma, resistant
Experimental: as §1

NCI-H69 VCR/R cells = experiment: XTT cytotoxicity, NCI-H69 VCR/R; conditions: for IC50: NCI-H69 VCR/R, vincristine resistant; for IC50 ratio between resistant and non-resistant cells: NCI-H69 VCR/R / NCI-H69
Experimental: as §1

MCF7 cells = experiment: XTT cytotoxicity, MCF7; conditions: MCF7, breast adenocarcinoma, non-resistant
Experimental: as §1

A2780 cells = experiment: XTT cytotoxicity, A2780; conditions: A2780, ovarian carcinoma, non-resistant
Experimental: as §1

[1] = system: colchicine binding site on tubulin protein; experiment: EBI competition assay, RPMI-8226 cells; conditions: RPMI-8226 living cells
MM1.R cells = experiment: XTT cytotoxicity, MM1.R; conditions: for IC50: MM1.R, multiple myeloma, dexamethasone resistant, read-out: IC50; for IC50 ratio between resistant and non-resistant cells: MM1.R / MM1.S
Experimental: as §1

RPMI-LR5 cells = experiment: XTT cytotoxicity, RPMI-LR5; conditions: for IC50: RPMI-LR5, multiple myeloma, melphalan resistant, read-out: IC50; for IC50 ratio between resistant and non-resistant cells: RPMI-LR5 / RPMI 8226
Experimental: as §1

RPMI-MR20 cells = experiment: XTT cytotoxicity, RPMI-MR20; conditions: for IC50: RPMI-MR20, mitoxantrone resistant, read-out: IC50; for IC50 ratio between resistant and non-resistant cells: RPMI-MR20 / RPMI 8226
Experimental: as §1

RPMI-DOX40 cells = experiment: XTT cytotoxicity, RPMI-DOX40; conditions: for IC50: RPMI-DOX40, multiple myeloma, P-gp overexpression, read-out: IC50; for IC50 ratio between resistant and non-resistant cells: RPMI-DOX40 / RPMI 8226
Experimental: as §1

RPMI 8226 cells = experiment: XTT cytotoxicity, RPMI 8226; conditions: RPMI 8226, multiple myeloma, non-resistant, read-out: IC50
Experimental: as §1

MM1.S cells = experiment: XTT cytotoxicity, MM1.S; conditions: multiple myeloma, non-resistant, read-out: IC50
Experimental: as §1

RPMI8226 cells = experiment: Cell cycle distribution by flow cytometry; conditions: 6 hours; IC50, IC50x2.5 and IC50x5 concentrations
Experimental: Cell cycle arrest is a shared consequence of MTAs treatment. The effects of cell cycle distribution were determined in RPMI8226 cells treated for 6 and 18 hours with a range of concentrations of the molecules. The cells were stained with propidium iodide and cell cycle distribution was measured using a cytoFLEX flow cytometer.

Row | Compound | effectiveness in subline overexpressing PgP (MES-SA/DX5 cells) | IC50 (NALM6 cells; Homo sapiens, NALM-6) | IC50 (MES-SA cells; Homo sapiens) | IC50 ratio between resistant and non-resistant cells (N6/ADR cells) | IC50 (N6/ADR cells) | IC50 (MCF7-VP cells; Homo sapiens) | IC50 ratio between resistant and non-resistant cells (MCF7-VP cells) | IC50 ratio between resistant and non-resistant cells (A2780ADR cells) | IC50 ratio between resistant and non-resistant cells (NCI-H69 VCR/R cells) | IC50 (MCF7 cells; Homo sapiens) | IC50 (MES-SA/DX5 cells; Homo sapiens) | IC50 ratio between resistant and non-resistant cells (MES-SA/DX5 cells) | prevention of covalent binding of EBI to the colchicine binding site [1] | IC50 (RPMI-LR5 cells) | IC50 ratio between resistant and non-resistant cells (RPMI-LR5 cells) | IC50 (RPMI-MR20 cells) | IC50 ratio between resistant and non-resistant cells (RPMI-MR20 cells) | IC50 (RPMI-DOX40 cells) | IC50 ratio between resistant and non-resistant cells (RPMI-DOX40 cells) | IC50 (RPMI 8226 cells; Homo sapiens) | also measured
1 | COc1cc2c(c(OC)c1OC)-c1ccc(OC)c(=O)cc1[C@@H](NC(C)=O)CC2 [Colchicine] | less effective in the subline overexpressing PgP | – | – | – | – | – | – | – | – | – | – | – | – | – | – | – | – | – | – | – | –
2 | CC(=O)O[C@H]1C(=O)[C@@]2(C)[C@H]([C@H](OC(=O)c3ccccc3)[C@]3(O)C[C@H](OC(=O)[C@H](O)[C@@H](NC(=O)c4ccccc4)c4ccccc4)C(C)=C1C3(C)C)[C@]1(OC(C)=O)CO[C@@H]1C[C@@H]2O [Paqlitaxel, paclitaxel] | less effective in the subline overexpressing PgP | 0.0084 µM | 0.11 µM | 2.857 | 0.024 µM | 0.074 µM | 0.544 | 61.538 | >16.949 | 0.136 µM | > 1 µM | >9.009 | – | – | – | – | – | – | – | – | IC50 (NCI-H69 cells; Homo sapiens): 0.059 µM; sensitivity to Pgp glycoprotein overexpression (N6/ADR cells; N6/ADR vs NALM6 dose response): sensitive to PgP; IC50 (A2780ADR cells; A2780 ADR): 0.4 µM; IC50 (NCI-H69 VCR/R cells; Homo sapiens): > 1 µM; IC50 (A2780 cells; Homo sapiens): 0.0065 µM
3 | CCCCCOC(=O)c1[nH]c2c(c1C)C(=O)CC(c1ccco1)C2 (stereo not shown) [SMS001, reference compound] | – | 0.037 µM | 0.203 µM | 1.000 | 0.037 µM | 0.469 µM | 1.340 | – | – | 0.35 µM | 0.049 µM | 0.241 | prevented the covalent binding of EBI to the colchicine binding site | 0.029 µM | 0.725 | 0.035 µM | 0.875 | 0.034 µM | 0.850 | 0.04 µM | IC50 (MM1.R cells; MM.1R): 0.069 µM; IC50 (MM1.S cells; Homo sapiens): 0.063 µM
4 | CCCCCOC(=O)c1[nH]c2c(c1C)C(=O)CN(c1ccccc1)C2 [SMS078, Pentyl 3-methyl-4-oxo-6-phenyl-4,5,6,7-tetrahydro-1H-pyrrolo[2,3-c]pyridine-2-carboxylate] | – | 0.178 µM | – | 0.927 | 0.165 µM | – | – | – | – | – | – | – | – | – | – | – | – | 0.489 µM | 2.329 | 0.21 µM | –
5 | Cc1c(C(=O)OCCCCN)[nH]c2c1C(=O)CC(c1ncco1)C2.Cl.Cl (stereo not shown) [SMS088, 4-ami0butyl-3-methyl-6-(oxazol-2-yl)-4-oxo-4,5,6,7-tetrahydro-1H-indole-2-carboxylate dihydrogen chloride] | – | – | – | 1.107 | 0.062 µM | – | 1.251 | – | – | – | – | 2.391 | prevented the covalent binding of EBI to the colchicine binding site | 1.43 µM | 0.885 | > 1.8 µM | >1.116 | 1.35 µM | 0.839 | – | cell cycle arrest (RPMI8226 cells): cell cycle arrest in G2M phase; IC50 (NALM6 cells): 0.056 µM; IC50 (MES-SA cells): 2.2 µM; IC50 (MCF7-VP cells): 7.3 µM; IC50 ratio between resistant and non-resistant cells (MM1.R cells): 0.934; IC50 (MM1.R cells): 1.02 µM; IC50 (MCF7 cells): 5.84 µM; IC50 (MES-SA/DX5 cells): 5.26 µM; IC50 (RPMI 8226 cells): 1.61 µM; IC50 (MM1.S cells): 1.1 µM
6 | CCCCCOC(=O)c1[nH]c2c(c1C)C(=O)CC(c1nccs1)C2 (stereo not shown) [SMS213, pentyl-3-methyl-4-oxo-6-(thiazol-2-yl)-4,5,6,7-tetrahydro-1H-indole-2-carboxylate] | – | 0.107 µM | 0.12 µM | 1.019 | 0.109 µM | 0.513 µM | 2.114 | – | – | 0.243 µM | 0.139 µM | 1.158 | – | 0.06 µM | 0.652 | 0.079 µM | 0.859 | 0.068 µM | 0.739 | 0.092 µM | IC50 ratio between resistant and non-resistant cells (MM1.R cells): 1.185; IC50 (MM1.R cells; MM.1R): 0.147 µM; IC50 (MM1.S cells; Homo sapiens): 0.124 µM
7 | CCCOC(=O)c1[nH]c2c(c1C)C(O)CC(c1ncco1)C2 (stereo not shown) [SMS291, propyl-4-hydroxy-3-methyl-6-(oxazol-2-yl)-4,5,6,7-tetrahydro-1H-indole-2-carboxylate] | – | 0.51 µM | – | 0.686 | 0.35 µM | – | – | – | – | – | – | – | did not prevent the covalent binding of EBI to the colchicine binding site | – | – | – | – | 0.531 µM | 0.543 | 0.978 µM | –
8 | CCCOC(=O)c1[nH]c2c(c1C)C(=O)CN(c1ncco1)C2 [SMS294, Propyl 3-methyl-6-(oxazol-2-yl)-4-oxo-4,5,6,7-tetrahydro-1H-pyrrolo[2,3-c]pyridine-2-carboxylate] | – | 0.907 µM | – | 2.138 | 1.94 µM | – | – | – | – | – | – | – | – | – | – | – | – | 1.06 µM | 1.598 | 0.666 µM | –
9 | CCC1=C[C@@H]2CN(C1)Cc1c([nH]c3ccccc13)[C@@](C(=O)OC)(c1cc3c(cc1OC)N(C)[C@H]1[C@@](O)(C(=O)OC)[C@H](OC(C)=O)[C@]4(CC)C=CCN5CC[C@]31[C@@H]54)C2 [Vinorelbine] | less effective in the subline overexpressing PgP | – | 0.064 µM | – | – | 0.028 µM | 1.273 | 300.000 | >45.454 | 0.022 µM | > 1 µM | >15.625 | – | – | – | – | – | – | – | – | IC50 (NCI-H69 cells; Homo sapiens): 0.022 µM; IC50 (A2780ADR cells; A2780 ADR): 2.7 µM; IC50 (NCI-H69 VCR/R cells; Homo sapiens): > 1 µM; IC50 (A2780 cells; Homo sapiens): 0.009 µM
10 | Epothilone | – | – | – | – | – | – | 2.073 | >370.370 | >11.364 | – | – | 3.613 | – | – | – | – | – | – | – | – | IC50 (NCI-H69 cells): 0.088 µM; IC50 (MES-SA cells): 0.052 µM; IC50 (MCF7-VP cells): 0.456 µM; IC50 (A2780ADR cells): > 1 µM; IC50 (NCI-H69 VCR/R cells): > 1 µM; IC50 (MCF7 cells): 0.22 µM; IC50 (MES-SA/DX5 cells): 0.187 µM; IC50 (A2780 cells): 0.0027 µM
